The subject of assay [1] is MIA PaCa-2 cells (KRAS G12C mutant). The assay is described as follows: MIA PaCa-2 cell anti-proliferation (CellTiter-Glo). It counts as cell-based. The note with it: Homo sapiens, 72 h; MIA Paca-2 cells, 3 days, Table 7; read-out: MIA PaCa-2 (IC50). The procedure: The number of viable cells was determined using the CellTiter-Glo® assay to evaluate the anti-proliferation efficacy of compounds. […] The compounds were serially diluted 4-fold in DMSO to obtain 9 concentrations, and then further diluted with DMEM (10% FBS+2.5% horse serum+1% penicillin/streptomycin) cell culture medium to obtain the working solutions (2×), 15 μL of each working solution was added to the cell culture supernatant in each well, and the cells were further incubated for 3 days at 37° C. with 5% CO2. The plate was then equilibrated with CellTiter-Glo® reagent at room temperature (25° C.) for 30 minutes. After adding 25 μL of CellTiter-Glo®, reagent, the cells were thoroughly mixed with the CellTiter-Glo® reagent using a microplate shaker for 2 minutes, and then incubated at room temperature for at least 30 minutes. […] Data were analyzed using GraphPad Prism for IC50 values (Note: The negative control refers to the group without inhibitor).
(In general: In ATP-based viability assays light output follows the ATP content of the culture.)

Assay [2] relates to NCI-H358 cells (KRAS G12C mutant). The assay is described as follows: NCI-H358 cell proliferation inhibition (CellTiter-Glo). The format is cell-based. The note with it: Homo sapiens, NCI-H358, 72 h; H358 cells (G12C mutation), 3 days, Table 6; read-out: NCI-H358 (IC50).
The target of assay [3] is PI3Kα (Homo sapiens (Human), UniProt P42336). The assay can be described thus: Inhibition of PI3Kα efficacy assay (ADP-Glo kinase assay). The note with it: Table 4; read-out: PI3Kα inhibitory activity (IC50). The format is biochemical. The gist of the method:
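ADP-Glo luminescent detection of ADP from PI3Kα acting on PI substrate with ATP, 60 min at RT; compounds in 8-point five-fold serial dilution from 2 mM DMSO stock. IC50 from four-parameter variable-slope fit.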

In patent US20250145589A1, “PYRIDINE DERIVATIVE AND USE THEREOF” (SICHUAN HUIYU PHARMACEUTICAL CO., LTD., priority 2021, published 2025) one finds IC50 data, which are given here for 20 molecules.

In general, IC50 refers to the concentration needed to halve the response being measured.

Sequence of PI3Kα (P42336 whole entry): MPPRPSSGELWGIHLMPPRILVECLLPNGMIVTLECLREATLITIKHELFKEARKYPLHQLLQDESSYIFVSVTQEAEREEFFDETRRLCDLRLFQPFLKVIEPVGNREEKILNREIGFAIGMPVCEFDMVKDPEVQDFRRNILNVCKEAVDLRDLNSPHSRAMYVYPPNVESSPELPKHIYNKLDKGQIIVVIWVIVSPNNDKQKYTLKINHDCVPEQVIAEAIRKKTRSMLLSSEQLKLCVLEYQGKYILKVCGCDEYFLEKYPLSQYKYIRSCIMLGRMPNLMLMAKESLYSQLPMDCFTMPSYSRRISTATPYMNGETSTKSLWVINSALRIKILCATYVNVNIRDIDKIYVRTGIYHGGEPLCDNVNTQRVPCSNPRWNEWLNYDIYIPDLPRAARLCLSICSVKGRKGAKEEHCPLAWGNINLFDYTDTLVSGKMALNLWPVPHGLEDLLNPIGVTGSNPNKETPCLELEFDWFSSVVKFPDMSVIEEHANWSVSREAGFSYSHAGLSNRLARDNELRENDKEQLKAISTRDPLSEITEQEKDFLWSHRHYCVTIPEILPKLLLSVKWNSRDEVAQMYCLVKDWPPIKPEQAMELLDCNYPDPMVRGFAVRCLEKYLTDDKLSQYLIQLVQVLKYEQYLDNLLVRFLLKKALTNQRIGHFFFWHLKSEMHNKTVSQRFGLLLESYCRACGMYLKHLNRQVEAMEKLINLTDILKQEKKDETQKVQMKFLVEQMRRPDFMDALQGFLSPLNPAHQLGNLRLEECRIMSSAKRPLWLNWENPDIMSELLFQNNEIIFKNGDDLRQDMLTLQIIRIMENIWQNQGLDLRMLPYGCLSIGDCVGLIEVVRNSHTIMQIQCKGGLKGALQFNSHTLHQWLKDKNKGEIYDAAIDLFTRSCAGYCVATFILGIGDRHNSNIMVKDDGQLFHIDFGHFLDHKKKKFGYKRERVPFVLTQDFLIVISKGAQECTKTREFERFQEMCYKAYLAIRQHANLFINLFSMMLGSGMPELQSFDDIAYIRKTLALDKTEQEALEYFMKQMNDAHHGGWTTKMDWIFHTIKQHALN
Sequence of PI3Kα (P27986 whole entry partner): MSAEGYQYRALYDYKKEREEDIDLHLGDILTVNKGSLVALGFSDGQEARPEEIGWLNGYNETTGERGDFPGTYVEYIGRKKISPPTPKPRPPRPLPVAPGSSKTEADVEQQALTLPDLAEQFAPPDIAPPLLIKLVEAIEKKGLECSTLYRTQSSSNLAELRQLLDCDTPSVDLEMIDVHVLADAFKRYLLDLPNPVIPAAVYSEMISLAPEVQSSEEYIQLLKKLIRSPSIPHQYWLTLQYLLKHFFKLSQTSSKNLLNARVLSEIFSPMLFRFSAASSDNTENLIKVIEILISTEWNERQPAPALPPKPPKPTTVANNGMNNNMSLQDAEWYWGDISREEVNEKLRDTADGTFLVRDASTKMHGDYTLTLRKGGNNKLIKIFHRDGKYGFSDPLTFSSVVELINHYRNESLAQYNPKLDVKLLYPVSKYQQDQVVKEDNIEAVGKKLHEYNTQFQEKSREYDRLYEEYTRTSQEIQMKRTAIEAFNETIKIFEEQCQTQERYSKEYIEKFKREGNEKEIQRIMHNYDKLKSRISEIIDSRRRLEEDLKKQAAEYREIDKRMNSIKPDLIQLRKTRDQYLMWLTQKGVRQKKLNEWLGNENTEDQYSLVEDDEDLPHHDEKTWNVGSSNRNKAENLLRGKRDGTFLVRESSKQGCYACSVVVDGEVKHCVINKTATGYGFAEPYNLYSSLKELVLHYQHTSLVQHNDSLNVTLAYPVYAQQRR

For the molecule `COc1ncc(-c2ccc3ncnc(N4CCN(C(=O)/C=C/C(C)=O)CC4)c3n2)cc1NS(=O)(=O)c1ccc(F)cc1` [Example 134, (E)-4-fluoro-N-(2-methoxy-5-(4-(4-(4-oxopent-2-enoyl)piperazin-1-yl)pyrido[3,2-d]pyrimidin-6-yl)pyridin-3-yl)benzenesulfonamide], the IC50 in assay [1] came to 19.6 nM.
On the same count and under the same terms, the same measure for `COc1ncc(-c2ccc3ncnc(N4CCN(C(=O)/C=C/C(C)=O)CC4)c3n2)cc1NS(=O)(=O)c1ccc(F)cc1Cl` [Example 135, (E)-2-chloro-4-fluoro-N-(2-methoxy-5-(4-(4-(4-oxopent-2-enoyl)piperazin-1-yl)pyrido[3,2-d]pyrimidin-6-yl)pyridin-3-yl)benzenesulfonamide]: 9.1 nM; for `COc1ncc(-c2ccc3ncnc(N4CCC5(CC4)CN(C(=O)/C=C/C(C)=O)C5)c3n2)cc1NS(=O)(=O)c1c(F)cccc1F` [Example 136, (E)-2,6-difluoro-N-(2-methoxy-5-(4-(2-(4-oxopent-2-enoyl)-2,7-diazaspiro[3.5]nonan-7-yl)pyrido[3,2-d]pyrimidin-6-yl)pyridin-3-yl)benzenesulfonamide]: 6.6 nM; for `COc1ncc(-c2ccc3ncnc(N4CC5CCC(C4)N5C(=O)/C=C/C(C)=O)c3n2)cc1NS(=O)(=O)c1c(F)cccc1F` [Example 137, 2,6-difluoro-N-(2-methoxy-5-(4-(8-((E)-4-oxopent-2-enoyl)-3,8-diazabicyclo[3.2.1]octan-3-yl)pyrido[3,2-d]pyrimidin-6-yl)pyridin-3-yl)benzenesulfonamide]: 6.8 nM.
As to `COc1ncc(-c2ccc3ncnc(N4CCN(C(=O)/C=C/C(C)=O)C[C@@H]4C)c3n2)cc1NS(=O)(=O)c1c(F)cccc1F` [Example 138, (S,E)-2,6-difluoro-N-(2-methoxy-5-(4-(2-methyl-4-(4-oxopent-2-enoyl)piperazin-1-yl)pyrido[3,2-d]pyrimidin-6-yl)pyridin-3-yl)benzenesulfonamide], the IC50 in assay [1] came out at 10.5 nM.
As for `COc1ncc(-c2ccc3ncnc(N4CCN(C(=O)/C(C#N)=C/C(C)(C)C)CC4)c3c2)cc1NS(=O)(=O)c1ccc(F)cc1F` [Example 180, (E)-N-(5-(4-(4-(2-cyano-4,4-dimethyl-pent-2-enoyl)piperazin-1-yl)quinazolin-6-yl)-2-methoxy-pyridin-3-yl)-2,4-difluoro-benzene-sulfonamide], the IC50 in assay [1] stood at 45.2 nM; in assay [2], 114 nM; in assay [3], 1.8 nM.
On the same counts, the results for `CSc1ncc(-c2ccc3ncnc(N4CCN(C(=O)/C=C/C(C)=O)CC4)c3c2)cc1NS(=O)(=O)c1ccc(F)cc1F` [Example 182, (E)-2,4-difluoro-N-(2-(methylthio)-5-(4-(4-(4-oxopent-2-enoyl)piperazin-1-yl)quinazolin-6-yl)pyridin-3-yl)benzene-sulfonamide] are 202 nM, 228 nM and 0.65 nM.
On to `CC(=O)/C=C/C(=O)N1CCN(c2ncnc3ccc(-c4cnc(C)c(NS(=O)(=O)c5ccc(F)cc5F)c4)cc23)CC1` [Example 188, (E)-2,4-difluoro-N-(2-methyl-5-(4-(4-(4-oxopent-2-enoyl)piperazin-1-yl)quinazolin-6-yl)pyridin-3-yl)benzene-sulfonamide], for which the figures for the IC50 in assay [1], in assay [2] and in assay [3] were 865 nM, 530 nM and 3.3 nM, respectively.
Regarding `CCOc1ncc(-c2ccc3ncnc(N4CCN(C(=O)/C=C/C(C)=O)CC4)c3c2)cc1NS(=O)(=O)c1ccccc1F` [Example 190, (E)-N-(2-ethoxy-5-(4-(4-(4-oxopent-2-enoyl)piperazin-1-yl)quinazolin-6-yl)pyridin-3-yl)-2-fluoro-benzene-sulfonamide], the IC50 in assay [1] stood at 108 nM; in assay [2] it was 112 nM; in assay [3], 9.5 nM.
For `CC(=O)/C=C/C(=O)N1CCN(c2ncnc3ccc(-c4cnc(C(F)(F)F)c(NS(=O)(=O)c5ccc(F)cc5F)c4)cc23)CC1` [Example 192, (E)-2,4-difluoro-N-(5-(4-(4-(4-oxopent-2-enoyl)piperazin-1-yl)quinazolin-6-yl)-2-(tri-fluoromethyl)pyridin-3-yl) benzene-sulfonamide] the same measures were 827 nM, 782 nM and 9.3 nM.
With `CC(=O)/C=C/C(=O)N1CCN(c2ncnc3ccc(-c4cnc(OC(F)(F)F)c(NS(=O)(=O)c5ccc(F)cc5F)c4)cc23)CC1` [Example 194, (E)-2,4-difluoro-N-(5-(4-(4-(4-oxopent-2-enoyl)piperazin-1-yl)quinazolin-6-yl)-2-(trifluoromethoxy)pyridin-3-yl)benzenesulfonamide], the IC50 in assay [1] was 782 nM; in assay [2] it was 728 nM; in assay [3] it was 2.8 nM.
For the molecule `COc1ncc(-c2cc(F)c3ncnc(N4CCN(C(=O)/C=C/C(C)=O)CC4)c3c2)cc1NS(=O)(=O)c1ccc(F)cc1F` [Example 196, (E)-2,4-difluoro-N-(5-(8-fluoro-4-(4-(4-oxopent-2-enoyl)piperazin-1-yl)quinazoline-6-yl)-2-methoxypyridin-3-yl)benzenesulfonamide], the figures for the IC50 in assay [1], in assay [2] and in assay [3] were 155 nM, 186 nM and 1.7 nM, respectively.
For the molecule `C=CS(=O)(=O)N1CCN(c2ncnc3ccc(-c4cnc(OC)c(NS(=O)(=O)c5ccc(F)cc5F)c4)cc23)CC1` [Example 207, 2,4-difluoro-N-(2-methoxy-5-(4-(4-(vinylsulfonyl)piperazin-1-yl)quinazolin-6-yl)pyridin-3-yl)benzenesulfonamide], the values for the concentration for half-maximal inhibition (IC50) in assay [1] and in assay [2] were 73.3 nM and 40 nM, respectively.
Consider `CC(=O)/C=C/C(=O)N1CCN(c2ncnc3ccc(-c4cnc(OC(F)F)c(NS(=O)(=O)c5ccc(F)cc5F)c4)cc23)CC1` [Example 208, (E)-N-(2-(difluoromethoxy)-5-(4-(4-(4-oxopent-2-enoyl)piperazin-1-yl)quinazoline-6-yl)pyridin-3-yl)-2,4-difluorobenzenesulfonamide], for which the IC50 in assay [1] was found to be 1040 nM; in assay [2], 1060 nM; in assay [3], 30.6 nM.
In the case of `C=C(F)C(=O)N1CCN(c2ncnc3ccc(-c4cnc(OC)c(NS(=O)(=O)c5c(F)cccc5F)c4)nc23)CC1` [Example 211, 2,6-difluoro-N-(5-(4-(4-(2-fluoroacryloyl)piperazin-1-yl)pyrido[3,2-d]pyrimidin-6-yl)-2-methoxy-pyridin-3-yl)benzene-sulfonamide], the IC50 amounted to 10.4 nM in assay [1], 12.8 nM in assay [2] and 1.7 nM in assay [3].
As to `CCC(=O)/C=C/C(=O)N1CCN(c2ncnc3ccc(-c4cnc(OC)c(NS(=O)(=O)c5c(F)cccc5F)c4)nc23)CC1` [Example 212, (E)-2,6-difluoro-N-(2-methoxy-5-(4-(4-(4-oxohex-2-enoyl)piperazin-1-yl)pyrido[3,2-d]pyrimidin-6-yl)pyridin-3-yl) benzene-sulfonamide], the IC50 was found to be 14 nM in assay [1], 15.2 nM in assay [2] and 3.8 nM in assay [3].
`COc1ncc(-c2ccc3ncnc(N4CCN(C(=O)/C=C/CF)CC4)c3n2)cc1NS(=O)(=O)c1c(F)cccc1F` [Example 213, (E)-2,6-difluoro-N-(5-(4-(4-(4-fluorobut-2-enoyl)piperazin-1-yl)pyrido[3,2-d]pyrimidine-6-yl)-2-methoxy-pyridin-3-yl) benzene-sulfonamide]: the IC50 in assay [1] was 16.4 nM; in assay [2] it was 14.3 nM; in assay [3], 9.8 nM.
`C=CC(=O)N1CCN(c2ncnc3ccc(-c4cnc(OC)c(NS(=O)(=O)c5c(F)cccc5F)c4)nc23)CC1` [Example 214, N-(5-(4-(4-acryloyl-piperazin-1-yl)pyrido[3,2-d]pyrimidin-6-yl)-2-methoxy-pyridin-3-yl)-2,6-difluoro-benzene-sulfonamide]: the figures for the IC50 in assay [1], in assay [2] and in assay [3] were 6.3 nM, 12.6 nM and 2.1 nM, respectively.
Consider `COC/C=C/C(=O)N1CCN(c2ncnc3ccc(-c4cnc(OC)c(NS(=O)(=O)c5c(F)cccc5F)c4)nc23)CC1` [Example 215, (E)-2,6-difluoro-N-(2-methoxy-5-(4-(4-(4-methoxybut-2-enoyl)piperazin-1-yl)pyridino [3,2-d]pyrimidin-6-yl)pyridin-3-yl) benzene-sulfonamide], for which the IC50 was determined as 6.3 nM in assay [1], 10 nM in assay [2] and 2.4 nM in assay [3].
Take `COc1ncc(-c2ccc3ncnc(N4CCN(C(=O)/C=C/C(F)(F)F)CC4)c3n2)cc1NS(=O)(=O)c1c(F)cccc1F` [Example 216, (E)-2,6-difluoro-N-(2-methoxy-5-(4-(4-(4,4,4-trifluorobut-2-enoyl)piperazin-1-yl)pyridino [3,2-d]pyrimidin-6-yl)pyridin-3-yl)benzene-sulfonamide]: the values for the IC50 in assay [1], in assay [2] and in assay [3] were 47.7 nM, 56 nM and 1 nM, respectively.
